Measurements reported in ChEMBL document CHEMBL1201862, “PubChem BioAssay data set” (2004).
The source made the active and inactive calls.

Legend:
[1] = molecular target: T1, Calpain-2 catalytic subunit (Sus scrofa, UniProt P43367); assay: m-calpain protease blockers, concentration series – biochemical, fluorogenic peptide substrate, dose response (AID 1420); assay type: functional
T1 sequence (P43367 whole entry): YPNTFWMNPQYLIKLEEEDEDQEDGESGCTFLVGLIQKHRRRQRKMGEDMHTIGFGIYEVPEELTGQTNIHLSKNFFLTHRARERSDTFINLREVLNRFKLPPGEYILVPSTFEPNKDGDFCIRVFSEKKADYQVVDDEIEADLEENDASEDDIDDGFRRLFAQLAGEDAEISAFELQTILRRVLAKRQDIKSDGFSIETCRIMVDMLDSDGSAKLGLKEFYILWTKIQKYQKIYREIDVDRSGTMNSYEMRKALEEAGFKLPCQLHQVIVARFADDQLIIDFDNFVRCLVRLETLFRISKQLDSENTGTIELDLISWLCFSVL

[2] = NIH-3T3 fibroblast cytotoxicity, dose response, cytotoxicity control, cell-based, fluorescence, Alamar Blue, secondary assay (AID 2327); assay type: functional;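 further: NIH-3T3 mouse fibroblasts cultured with fluconazole at 8 µg/mL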
[3] = fluconazole-exposed Candida albicans growth modulators – fluorescence, retest, confirmation (AID 2467); assay type: functional, cell-based
Paired box protein Pax-8 = Paired box protein Pax-8 (Homo sapiens, UniProt Q06710); assay: PAX8 transcriptional activity inhibition in RMG-I – RMG-I cells, luciferase, cherry-pick, dose response (AID 687027); assay type: functional, cell-based;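 further: luciferase reporter driven by Pax8 target thyroperoxidase promoter measured by SteadyGlo luminescence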
Paired box protein Pax-8, sequence (Q06710 whole entry): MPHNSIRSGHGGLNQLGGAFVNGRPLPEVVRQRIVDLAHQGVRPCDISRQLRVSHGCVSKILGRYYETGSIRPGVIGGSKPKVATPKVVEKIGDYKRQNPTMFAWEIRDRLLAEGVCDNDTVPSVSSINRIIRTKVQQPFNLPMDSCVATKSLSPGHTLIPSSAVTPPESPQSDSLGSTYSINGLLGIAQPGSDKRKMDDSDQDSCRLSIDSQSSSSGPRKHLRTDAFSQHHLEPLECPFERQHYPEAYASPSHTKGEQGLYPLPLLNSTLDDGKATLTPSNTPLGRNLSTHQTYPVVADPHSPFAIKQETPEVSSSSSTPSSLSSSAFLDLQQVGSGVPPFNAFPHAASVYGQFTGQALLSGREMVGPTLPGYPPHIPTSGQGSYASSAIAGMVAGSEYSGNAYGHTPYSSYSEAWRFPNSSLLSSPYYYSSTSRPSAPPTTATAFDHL

Leucine aminopeptidase = molecular target: T2, Leucine aminopeptidase (Plasmodium falciparum 3D7, UniProt Q8IL11); assay: P. falciparum M17LAP inhibitors, primary screen, biochemical, fluorogenic H-Leu-NHMec substrate, 1536-well (AID 1619); assay type: functional
T2 sequence (Q8IL11 whole entry): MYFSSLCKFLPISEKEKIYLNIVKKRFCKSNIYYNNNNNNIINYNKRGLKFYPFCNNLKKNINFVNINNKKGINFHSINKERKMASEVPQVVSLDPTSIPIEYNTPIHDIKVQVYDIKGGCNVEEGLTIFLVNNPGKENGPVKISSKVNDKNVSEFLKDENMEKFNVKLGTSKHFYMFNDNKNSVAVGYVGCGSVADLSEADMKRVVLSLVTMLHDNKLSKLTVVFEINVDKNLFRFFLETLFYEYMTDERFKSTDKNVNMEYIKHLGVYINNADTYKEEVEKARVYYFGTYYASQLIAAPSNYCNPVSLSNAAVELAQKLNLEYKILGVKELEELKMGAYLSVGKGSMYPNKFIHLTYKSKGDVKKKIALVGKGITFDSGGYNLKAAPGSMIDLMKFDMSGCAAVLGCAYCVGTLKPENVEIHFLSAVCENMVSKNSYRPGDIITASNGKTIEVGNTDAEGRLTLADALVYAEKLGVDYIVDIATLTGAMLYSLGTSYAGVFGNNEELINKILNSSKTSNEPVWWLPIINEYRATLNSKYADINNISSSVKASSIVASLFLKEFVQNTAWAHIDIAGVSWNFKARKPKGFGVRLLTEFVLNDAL

[4] = molecular target: T3, Replicative DNA helicase DnaB (Mycobacterium tuberculosis, UniProt P9WMR3); assay: DnaB intein splicing inhibitors, dose response, biochemical, cell-free fluorescence (AID 449749); assay type: functional
T3 sequence (P9WMR3 whole entry): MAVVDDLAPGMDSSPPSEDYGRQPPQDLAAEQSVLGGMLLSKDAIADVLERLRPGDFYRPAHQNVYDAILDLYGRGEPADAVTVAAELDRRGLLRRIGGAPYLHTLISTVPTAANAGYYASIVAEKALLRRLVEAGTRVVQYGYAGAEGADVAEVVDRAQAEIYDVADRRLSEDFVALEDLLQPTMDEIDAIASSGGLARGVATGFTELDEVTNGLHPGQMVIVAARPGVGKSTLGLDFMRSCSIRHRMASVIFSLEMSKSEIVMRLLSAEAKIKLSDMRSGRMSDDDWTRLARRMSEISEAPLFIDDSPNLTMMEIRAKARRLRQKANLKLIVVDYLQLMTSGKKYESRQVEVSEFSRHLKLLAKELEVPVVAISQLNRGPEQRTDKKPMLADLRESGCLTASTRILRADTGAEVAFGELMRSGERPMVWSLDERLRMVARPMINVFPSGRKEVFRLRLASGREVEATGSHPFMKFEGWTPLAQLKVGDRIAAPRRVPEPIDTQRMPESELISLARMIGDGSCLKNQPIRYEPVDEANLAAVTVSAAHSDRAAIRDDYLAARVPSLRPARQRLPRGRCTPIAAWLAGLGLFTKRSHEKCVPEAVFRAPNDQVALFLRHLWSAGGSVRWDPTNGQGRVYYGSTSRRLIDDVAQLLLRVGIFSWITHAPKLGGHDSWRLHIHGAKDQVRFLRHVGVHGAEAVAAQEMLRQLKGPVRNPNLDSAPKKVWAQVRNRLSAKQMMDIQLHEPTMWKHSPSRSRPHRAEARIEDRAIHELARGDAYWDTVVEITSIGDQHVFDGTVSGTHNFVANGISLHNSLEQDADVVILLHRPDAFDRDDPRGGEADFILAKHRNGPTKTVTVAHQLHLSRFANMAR

Protein RecA = molecular target: T4, Protein RecA (Mycobacterium tuberculosis, UniProt P9WHJ3); assay: Fluorescence Cell-Free Homogeneous Dose Retest to Identify Inhibitors of RecA-Intein Splicing Activity. [Related pubchem assays (depositor defined):AID2097, AID2223, AID489010, AID492950]; assay type: functional
T4 sequence (P9WHJ3 whole entry): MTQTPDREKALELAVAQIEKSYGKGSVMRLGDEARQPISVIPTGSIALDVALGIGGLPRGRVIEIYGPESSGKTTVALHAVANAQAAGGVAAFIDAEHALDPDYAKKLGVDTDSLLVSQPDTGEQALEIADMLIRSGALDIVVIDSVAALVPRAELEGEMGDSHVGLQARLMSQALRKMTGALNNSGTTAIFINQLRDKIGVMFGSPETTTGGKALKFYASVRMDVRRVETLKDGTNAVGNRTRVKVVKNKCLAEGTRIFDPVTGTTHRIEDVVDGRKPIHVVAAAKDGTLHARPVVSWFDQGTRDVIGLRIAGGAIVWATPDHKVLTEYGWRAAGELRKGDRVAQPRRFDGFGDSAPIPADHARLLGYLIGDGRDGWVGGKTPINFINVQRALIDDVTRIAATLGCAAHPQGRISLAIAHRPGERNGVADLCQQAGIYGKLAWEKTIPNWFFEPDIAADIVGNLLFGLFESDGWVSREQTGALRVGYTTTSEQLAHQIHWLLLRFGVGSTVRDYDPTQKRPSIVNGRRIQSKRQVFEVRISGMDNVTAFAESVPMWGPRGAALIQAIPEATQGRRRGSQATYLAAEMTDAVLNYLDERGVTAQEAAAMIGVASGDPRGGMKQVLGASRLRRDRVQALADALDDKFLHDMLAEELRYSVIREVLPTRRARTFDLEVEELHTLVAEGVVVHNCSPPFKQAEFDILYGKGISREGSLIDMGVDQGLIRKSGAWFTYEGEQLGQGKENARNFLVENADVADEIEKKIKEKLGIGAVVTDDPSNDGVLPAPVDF

[5] = molecular target: T5, Corticotropin-releasing factor receptor 2/Corticotropin-releasing factor-binding protein (Homo sapiens, UniProt P24387+Q13324); assay: Dose Response confirmation of uHTS hits for small molecule antagonists of the CRF-binding protein and CRF-R2 receptor complex.; assay type: functional; conditions: read-out: IC50_Mean
T5 sequence (Q13324 whole entry): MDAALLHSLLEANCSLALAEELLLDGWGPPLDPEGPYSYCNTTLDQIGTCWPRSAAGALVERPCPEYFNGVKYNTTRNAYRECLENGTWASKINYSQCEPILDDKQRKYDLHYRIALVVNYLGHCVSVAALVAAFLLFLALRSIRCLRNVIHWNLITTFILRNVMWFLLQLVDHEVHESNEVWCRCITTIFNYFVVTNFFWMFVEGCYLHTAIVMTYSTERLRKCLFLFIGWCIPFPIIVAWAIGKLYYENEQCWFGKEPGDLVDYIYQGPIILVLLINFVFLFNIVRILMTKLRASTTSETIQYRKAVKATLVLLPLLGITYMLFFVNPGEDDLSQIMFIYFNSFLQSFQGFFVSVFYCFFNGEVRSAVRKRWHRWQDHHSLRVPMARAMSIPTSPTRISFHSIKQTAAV
T5 sequence (P24387 whole entry): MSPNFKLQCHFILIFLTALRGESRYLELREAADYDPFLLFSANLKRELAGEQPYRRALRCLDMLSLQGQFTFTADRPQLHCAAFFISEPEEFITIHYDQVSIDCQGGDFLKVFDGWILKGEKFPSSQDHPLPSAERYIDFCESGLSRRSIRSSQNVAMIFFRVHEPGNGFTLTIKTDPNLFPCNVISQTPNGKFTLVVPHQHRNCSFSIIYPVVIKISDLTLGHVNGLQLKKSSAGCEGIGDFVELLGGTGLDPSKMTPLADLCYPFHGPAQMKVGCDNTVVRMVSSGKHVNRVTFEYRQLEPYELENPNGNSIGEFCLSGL

[6] = molecular target: T5, Corticotropin-releasing factor receptor 2/Corticotropin-releasing factor-binding protein; assay: activators of CRF receptor 2 with binding protein – uHTS hits, confirmation (AID 602473); assay type: functional; conditions: read-out: EC50_Mean
[7] = Luminescence Cell-Based Dose Confirmation HTS to Identify Activators of 5'UTR Stem-Loop Driven Alpha-Synuclein mRNA Translation in H4 Neuroglioblastoma Cells. [Related pubchem assays: 1829 (Project Summary), 1814 (Primary HTS)]; assay type: functional
[8] = Luminescence Cell-Based Dose Response HTS to Identify Activators of Luciferase Translation or Activity in H4 […] Cells. [Related pubchem assays: 1829 (Project Summary), 1814 (Primary HTS)]; assay type: functional
H4 = assay: Luminescence Cell-Based Dose Response HTS to Identify Activators of 5'UTR Stem-Loop Driven Prion Protein mRNA Translation in H4 Neuroglioblastoma Cells. [Related pubchem assays: 1829 (Project Summary), 1814 (Primary HTS)]; assay type: functional; conditions: Homo sapiens
[9] = molecular target: T6, Rac GTPase-activating protein 1 (Homo sapiens, UniProt Q9H0H5); assay: blockers of MgcRacGAP-driven Rac1 GTP hydrolysis – biochemical, ADP Hunter fluorescence, primary and confirmatory, confirmation (AID 624330); assay type: functional
T6 sequence (Q9H0H5 whole entry): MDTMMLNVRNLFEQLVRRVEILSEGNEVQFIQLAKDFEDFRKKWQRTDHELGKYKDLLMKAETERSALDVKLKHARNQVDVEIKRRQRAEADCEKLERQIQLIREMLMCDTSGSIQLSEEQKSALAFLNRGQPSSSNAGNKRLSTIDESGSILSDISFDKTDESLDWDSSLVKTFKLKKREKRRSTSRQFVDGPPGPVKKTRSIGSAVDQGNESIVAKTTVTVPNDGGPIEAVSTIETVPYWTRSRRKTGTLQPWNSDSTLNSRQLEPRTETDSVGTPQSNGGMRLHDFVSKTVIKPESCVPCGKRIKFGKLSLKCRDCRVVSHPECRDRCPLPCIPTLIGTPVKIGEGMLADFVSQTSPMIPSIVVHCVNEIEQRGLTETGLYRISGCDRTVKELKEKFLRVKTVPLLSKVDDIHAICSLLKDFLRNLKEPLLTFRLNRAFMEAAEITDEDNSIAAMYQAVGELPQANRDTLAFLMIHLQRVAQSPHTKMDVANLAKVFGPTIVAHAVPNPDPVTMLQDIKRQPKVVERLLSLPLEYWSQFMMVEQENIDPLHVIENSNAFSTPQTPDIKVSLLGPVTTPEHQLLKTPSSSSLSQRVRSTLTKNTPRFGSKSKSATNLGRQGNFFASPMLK

## O=C(CCn1c(=O)[nH]c2ccsc2c1=O)NCc1ccc(F)cc1
[1]
  IC50: < 0.4 µM (not active)

## OCCN1CCN(C(S)=NC2CCCC2)CC1
[2]
  EC50: 50.8 µM (active)
[3]
  EC50: 5.25 µM (active)

## O=C(OCC(=O)N1CCN(C(=O)c2ccco2)CC1)c1cccc(S(=O)(=O)N2CCc3ccccc32)c1
Paired box protein Pax-8
  AC50: 1.38 µM (active)

## O=C1C2CCCCC2C(=O)N1c1ccc(NC2CCCCC2)c([N+](=O)[O-])c1 (configuration not stated)
[1]
  IC50: 4.65 µM (active)

## Cc1cc(NS(=O)(=O)c2ccc(NC(=O)CN3C(=O)c4ccccc4C3=O)cc2)nc(C)n1
Leucine aminopeptidase
  IC50: 64.4 µM (active)

## CCCC1C(c2ccco2)NC(c2ccco2)CC1(C)O (configuration not stated)
[2]
  EC50: > 150 µM (inactive)
[3]
  EC50: 8.34 µM (active)

## O=C1c2ccccc2NC(c2c[nH]nc2-c2ccc(Cl)cc2)N1O (configuration not stated)
[2]
  EC50: > 160 µM (inactive)
[3]
  EC50: > 38 µM (not active)

## CCOCCCNC(=O)C1CCC(CNS(=O)(=O)c2ccc(Cl)cc2)CC1 (configuration not stated)
[1]
  IC50: > 50 µM (not active)

## C/C(=C\c1ccco1)C1C(C#N)=C(N)Oc2[nH]nc(-c3ccccc3)c21 (configuration not stated)
[4]
  AC50: 6.38 µM (active)
Leucine aminopeptidase
  IC50: 83.7 µM (active)
Protein RecA
  EC50: 3.12 µM (active)

## COc1cccc(CNc2nn[nH]n2)c1OC
Leucine aminopeptidase
  IC50: 67.2 µM (active)

## Cc1ccc(NC(=O)CSC2=C(C#N)C(c3ccco3)CC(=O)N2)cc1 (configuration not stated)
[5]
  IC50: > 47.1 µM (inactive)
[6]
  EC50: > 53 µM (inactive)
[7]
  EC50: 0.908 µM (active)
[8]
  EC50: 12.4 µM (active)
H4
  EC50: 16.1 µM (active)

## CC(=O)Nc1ccc(NC(=O)CCCN2C(=O)c3ccccc3C2=O)cc1
[2]
  EC50: > 150 µM (inactive)

## Cc1ccc(-c2nc(N)sc2-c2ccc(C)cc2)cc1
[1]
  IC50: 3.19 µM (not active)

## OC(CNCc1ccc(Cl)cc1)(c1ccccc1)c1ccc(F)cc1 (configuration not stated)
[1]
  IC50: 12.1 µM (not active)

## CCOC(=O)c1cnn(CCOC(=O)c2cccc(F)c2)c1NC(=O)c1cccc(F)c1
Paired box protein Pax-8
  AC50: 20 µM (active)

## Cc1ccc(CNC(=O)CCCCCNc2nc(S)nc3ccccc23)cc1
[1]
  IC50: 24.8 µM (not active)

## CC1CCCCN1C(=O)CSc1nc(O)cc(-c2ccccc2)n1 (configuration not stated)
Leucine aminopeptidase
  IC50: 63.5 µM (active)

## CCCOC(=O)Nc1cc(OC)ccc1[N+](=O)[O-]
[1]
  IC50: 8.71 µM (not active)

## CCOc1ccc(C2C(C(=O)Nc3ccccc3)=C(C)N=c3s/c(=C/c4cccc(OCC(=O)O)c4)c(=O)n32)cc1 (configuration not stated)
Leucine aminopeptidase
  IC50: 5.95 µM (active)

## O=[N+]([O-])c1ccc(/C(=N\c2cccc3ccccc23)N2CCOCC2)cc1
[2]
  EC50: > 150 µM (inactive)
[3]
  EC50: > 38 µM (not active)

## O=C1c2ccccc2C(=O)N1/N=C/c1ccc(O)c(O)c1
[9]
  IC50: 44.5 µM (active)
Leucine aminopeptidase
  IC50: 30.4 µM (active)
